Test results published in publication PMC8269135, “Diethylstilbestrol, a Novel ANO1 Inhibitor, Exerts an Anticancer Effect on Non-Small Cell Lung Cancer via Inhibition of ANO1” (International Journal of Molecular Sciences, 2021).

Assays:
[1] = target: T1, cystic fibrosis transmembrane conductance regulator (CFTR) (Homo sapiens, UniProt P13569); assay: YFP fluorescence and Ussing chamber short-circuit current in FRT-hCFTR cells, […]; format: cell-based
T1 construct: human CFTR expressed in FRT cells
T1 sequence (P13569 whole entry): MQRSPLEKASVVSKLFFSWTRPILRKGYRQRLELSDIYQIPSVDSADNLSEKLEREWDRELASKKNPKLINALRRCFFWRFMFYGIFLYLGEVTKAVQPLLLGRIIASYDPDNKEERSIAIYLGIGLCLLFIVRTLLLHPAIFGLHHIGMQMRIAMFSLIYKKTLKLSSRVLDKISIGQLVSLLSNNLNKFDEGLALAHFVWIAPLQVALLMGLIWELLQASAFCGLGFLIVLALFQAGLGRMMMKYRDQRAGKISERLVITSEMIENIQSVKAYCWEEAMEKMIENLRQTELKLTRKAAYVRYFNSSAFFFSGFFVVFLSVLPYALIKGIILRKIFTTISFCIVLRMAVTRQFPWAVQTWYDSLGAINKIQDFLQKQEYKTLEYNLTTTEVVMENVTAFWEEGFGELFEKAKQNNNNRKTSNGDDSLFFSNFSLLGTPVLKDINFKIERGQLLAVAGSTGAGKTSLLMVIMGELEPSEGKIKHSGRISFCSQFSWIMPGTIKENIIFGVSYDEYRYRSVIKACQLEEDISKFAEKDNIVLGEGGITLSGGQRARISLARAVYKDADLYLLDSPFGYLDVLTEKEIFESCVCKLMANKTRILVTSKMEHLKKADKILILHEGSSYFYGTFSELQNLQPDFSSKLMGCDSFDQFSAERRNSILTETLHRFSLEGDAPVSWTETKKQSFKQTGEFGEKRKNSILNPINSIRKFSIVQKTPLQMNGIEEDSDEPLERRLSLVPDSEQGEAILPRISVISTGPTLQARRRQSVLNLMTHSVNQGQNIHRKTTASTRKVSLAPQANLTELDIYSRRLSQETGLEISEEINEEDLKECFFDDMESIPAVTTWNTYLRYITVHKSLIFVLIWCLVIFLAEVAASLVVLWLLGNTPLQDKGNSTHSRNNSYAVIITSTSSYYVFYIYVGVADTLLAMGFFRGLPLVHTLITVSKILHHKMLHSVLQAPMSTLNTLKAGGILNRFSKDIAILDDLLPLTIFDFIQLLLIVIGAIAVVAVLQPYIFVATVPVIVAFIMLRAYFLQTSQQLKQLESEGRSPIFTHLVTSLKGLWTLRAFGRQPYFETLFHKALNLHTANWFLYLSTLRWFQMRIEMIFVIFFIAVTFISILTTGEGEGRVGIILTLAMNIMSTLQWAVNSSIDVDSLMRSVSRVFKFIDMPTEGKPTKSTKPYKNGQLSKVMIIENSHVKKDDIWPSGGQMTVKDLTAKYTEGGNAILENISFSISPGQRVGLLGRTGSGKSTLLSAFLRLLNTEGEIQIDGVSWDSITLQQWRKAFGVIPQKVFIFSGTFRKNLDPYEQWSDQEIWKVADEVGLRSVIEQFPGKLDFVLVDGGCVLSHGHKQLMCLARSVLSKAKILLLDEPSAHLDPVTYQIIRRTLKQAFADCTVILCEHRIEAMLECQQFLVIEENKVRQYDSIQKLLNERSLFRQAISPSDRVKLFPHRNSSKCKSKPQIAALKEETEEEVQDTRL

Anoctamin1 (ANO1) = target: T2, Anoctamin1 (ANO1) (Homo sapiens, UniProt Q5XXA6); assay: YFP quenching assay in FRT-ANO1 cells; short-circuit current; whole-cell patch clamp in HEK293; format: cell-based
T2 construct: human ANO1 expressed in FRT cells (YFP assay, Ussing chamber) and HEK293 cells (patch clamp)
T2 sequence (Q5XXA6 1-986): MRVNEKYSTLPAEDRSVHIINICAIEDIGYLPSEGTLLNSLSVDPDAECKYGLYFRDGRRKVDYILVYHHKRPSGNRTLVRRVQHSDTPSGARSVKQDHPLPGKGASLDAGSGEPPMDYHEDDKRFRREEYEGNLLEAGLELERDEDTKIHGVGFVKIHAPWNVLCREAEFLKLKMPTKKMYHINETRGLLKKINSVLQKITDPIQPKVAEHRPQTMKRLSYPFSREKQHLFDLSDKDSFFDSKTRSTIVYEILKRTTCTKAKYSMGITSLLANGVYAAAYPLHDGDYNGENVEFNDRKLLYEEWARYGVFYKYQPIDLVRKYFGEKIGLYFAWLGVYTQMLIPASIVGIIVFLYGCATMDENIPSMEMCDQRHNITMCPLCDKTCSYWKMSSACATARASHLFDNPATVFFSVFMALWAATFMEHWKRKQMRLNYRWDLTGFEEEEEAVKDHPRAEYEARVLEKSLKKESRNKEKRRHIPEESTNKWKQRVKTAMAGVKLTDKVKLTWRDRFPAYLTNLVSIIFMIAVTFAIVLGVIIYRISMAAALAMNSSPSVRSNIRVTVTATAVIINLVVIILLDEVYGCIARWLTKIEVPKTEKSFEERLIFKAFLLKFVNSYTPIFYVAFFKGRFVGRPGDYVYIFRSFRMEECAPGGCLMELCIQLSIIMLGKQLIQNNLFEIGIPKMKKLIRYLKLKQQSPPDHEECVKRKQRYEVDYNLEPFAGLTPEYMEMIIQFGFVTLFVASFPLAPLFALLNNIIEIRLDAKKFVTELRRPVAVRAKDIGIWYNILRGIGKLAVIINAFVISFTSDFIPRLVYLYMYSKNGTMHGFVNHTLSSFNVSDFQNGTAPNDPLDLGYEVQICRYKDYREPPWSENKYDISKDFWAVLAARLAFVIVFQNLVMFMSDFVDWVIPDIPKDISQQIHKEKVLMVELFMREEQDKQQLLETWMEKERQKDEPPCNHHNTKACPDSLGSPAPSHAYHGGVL

IC50 (Anoctamin1 (ANO1)) [µM] | Structure (SMILES) | YFP fluorescence and Ussing chamber short-circuit current in FRT-hCFTR cells, 10 [1]
– | O=C(O)c1ccc(/C=C2\SC(=S)N(c3cccc(C(F)(F)F)c3)C2=O)cc1 [CFTRinh-172] | forskolin-induced CFTR activity was inhibited by CFTRinh172 (a known CFTR channel inhibitor)
6.58 | CC/C(=C(/CC)c1ccc(O)cc1)c1ccc(O)cc1 [DES, diethylstilbestrol] | –
